Experimental data published in ChEMBL document CHEMBL1130975, “Preparation of alpha-keto ester enol acetates as potential prodrugs of human neutrophil elastase inhibitors” (Bioorg Med Chem Lett, 1998).
Blank lines part the entries; values can stand above or below the compound they belong to.

Experiments:
Neutrophil elastase = target: T1, Neutrophil elastase (Homo sapiens, UniProt P08246); assay: Tested for rate of substrate hydrolysis in the presence of human neutrophil elastase
T1 sequence (P08246 whole entry): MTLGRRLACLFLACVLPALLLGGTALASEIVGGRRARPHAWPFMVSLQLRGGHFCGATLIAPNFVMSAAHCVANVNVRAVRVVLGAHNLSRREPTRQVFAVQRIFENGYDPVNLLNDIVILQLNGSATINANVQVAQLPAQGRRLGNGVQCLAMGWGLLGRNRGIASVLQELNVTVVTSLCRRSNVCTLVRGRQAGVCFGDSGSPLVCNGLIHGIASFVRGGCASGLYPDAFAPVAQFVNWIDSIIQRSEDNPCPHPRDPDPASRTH

[1] = target: T2, Neutrophil elastase (Homo sapiens) (UniProt P08246); assay: Tested for rate of substrate hydrolysis in the presence of human neutrophil elastase at a concentration of 1 uM
T2 sequence (whole entry): T1 sequence (P08246 whole entry)

[2] = target: T2, Neutrophil elastase (Homo sapiens); assay: Tested for rate of substrate hydrolysis in the presence of human neutrophil elastase at a concentration of 9 uM
[3] = target: T3, S-formylglutathione hydrolase (Sus scrofa) (UniProt Q9GJT2); assay: Tested for rate of substrate hydrolysis in the presence of porcine kidney esterase at a concentration of 9 uM
T3 sequence (whole entry): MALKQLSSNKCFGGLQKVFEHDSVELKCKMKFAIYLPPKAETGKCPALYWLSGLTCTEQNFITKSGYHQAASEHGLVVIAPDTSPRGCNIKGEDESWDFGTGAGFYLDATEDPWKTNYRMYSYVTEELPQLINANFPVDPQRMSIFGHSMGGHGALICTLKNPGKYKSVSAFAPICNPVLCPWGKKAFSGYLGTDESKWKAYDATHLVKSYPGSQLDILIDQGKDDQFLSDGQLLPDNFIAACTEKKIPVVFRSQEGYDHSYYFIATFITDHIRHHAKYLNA

[4] = target: T3, S-formylglutathione hydrolase (Sus scrofa); assay: Tested for rate of substrate hydrolysis in the presence of porcine kidney esterase at a concentration of 1 uM
[5] = target: T2, Neutrophil elastase (Homo sapiens); assay: Tested for rate of substrate hydrolysis in the presence of human neutrophil elastase at a concentration of 10 nM
[6] = target: T2, Neutrophil elastase (Homo sapiens); assay: Tested for rate of substrate hydrolysis in the presence of human neutrophil elastase at a concentration of 45 nM
[7] = target: T3, S-formylglutathione hydrolase (Sus scrofa); conditions: 45 nM
Description: Tested for rate of substrate hydrolysis in the presence of porcine kidney esterase at a concentration of 45 nM

[8] = target: T3, S-formylglutathione hydrolase (Sus scrofa); conditions: 10 nM
Description: Tested for rate of substrate hydrolysis in the presence of porcine kidney esterase at a concentration of 10 nM

Ki (Neutrophil elastase): 2 nM
SMILES: COC(=O)C(=O)[C@@H](NC(=O)C1CCCN1C(=O)[C@H](C)NC(=O)[C@H](C)NC(=O)c1ccc(C(=O)NS(=O)(=O)c2ccc(Cl)cc2)cc1)C(C)C (stereo not given in full)

Rate [1]: 81%
Rate [2]: 35%
Rate [3]: 2.8%
Rate [4]: 24%
SMILES: COC(=O)CCC(=O)N[C@@H](C)C(=O)N[C@@H](C)C(=O)N1CCC[C@H]1C(=O)N/C(=C(/OC(C)=O)C(=O)OC)C(C)C

Ki (Neutrophil elastase): 200 nM
SMILES: COC(=O)CCC(=O)N[C@@H](C)C(=O)N[C@@H](C)C(=O)N1CCC[C@H]1C(=O)N[C@H](C(=O)C(=O)OC)C(C)C

Rate [5]: 99%
Rate [6]: 94%
Rate [7]: 37%
Rate [8]: 76%
SMILES: COC(=O)/C(OC(C)=O)=C(\NC(=O)[C@@H]1CCCN1C(=O)[C@H](C)NC(=O)[C@H](C)NC(=O)c1ccc(C(=O)NS(=O)(=O)c2ccc(Cl)cc2)cc1)C(C)C
